# Assay results published in patent US9743665B2, “Fungicidal 3-{phenyl[heterocyclylmethoxy)imino]methyl}-oxadiazolone derivatives” (BAYER CROPSCIENCE AKTIENGESELLSCHAFT, priority 2013, dated 2017).
# Read-outs that look alike come from different tables or passages of the source. Marks after values point to notes of the source that are not given here.
# Columns and labels:
# Phytophthora infestans = assay type: in vivo; conditions: tomato plants, preventive spray, 500 ppm of active ingredient, evaluated 5 days after inoculation
# Pyrenophora teres = assay: Example E: in vivo preventive test on Pyrenophora teres (net blotch on barley); conditions: barley plants, preventive spray, 500 ppm of active ingredient, evaluated 14 days after inoculation
# Experimental: Example E: In Vivo Preventive Test on Pyrenophora teres (Net Blotch on Barley)
# (§1) The tested active ingredients are prepared by homogenization in a mixture of acetone/Dimethyl sulfoxide/Tween®, and then diluted with water to obtain the desired active material concentration.
# The young plants of barley are treated by spraying the active ingredient prepared as described above. Control plants are treated only with an aqueous solution of acetone/Dimethyl sulfoxide/Tween®.
# After 24 hours, the plants are contaminated by spraying the leaves with an aqueous suspension of Pyrenophora teres spores. The contaminated barley plants are incubated for 48 hours at 20° C. and at 100% relative humidity and then for 12 days at 20° C. and at 70-80% relative humidity.
# The test is evaluated 14 days after the inoculation. 0% means an efficacy which corresponds to that of the control plants while an efficacy of 100% means that no disease is observed.
# Septoria tritici = assay: Example G: in vivo preventive test on Septoria tritici (leaf spot on wheat); conditions: wheat plants, preventive spray, 500 ppm of active ingredient, evaluated 24 days after inoculation
# Experimental: Example G: In Vivo Preventive Test on Septoria tritici (Leaf Spot on Wheat)
# as §1
# (§2) The young plants of wheat are treated by spraying the active ingredient prepared as described above. Control plants are treated only with an aqueous solution of acetone/Dimethyl sulfoxide/Tween®.
# After 24 hours, the plants are contaminated by spraying the leaves with an aqueous suspension of Septoria tritici spores. The contaminated wheat plants are incubated for 72 hours at 18° C. and at 100% relative humidity and then for 21 days at 20° C. and at 90% relative humidity.
# The test is evaluated 24 days after the inoculation. 0% means an efficacy which corresponds to that of the control plants while an efficacy of 100% means that no disease is observed.
# [1] = pH 2.7
# Experimental: (§4) Measurement of IogP values was performed according EEC directive 79/831 Annex V.A8 by HPLC (High Performance Liquid Chromatography) on reversed phase columns with the following methods:
# (§5) Measurement of LC-MS was done at pH 2.7 with 0.1% formic acid in water and with acetonitrile (contains 0.1% formic acid) as eluent with a linear gradient from 10% acetonitrile to 95% acetonitrile.
# (§6) Calibration was done with not branched alkan2-ones (with 3 to 16 carbon atoms) with known logP-values (measurement of logP values using retention times with linear interpolation between successive alkanones). lambda-maX-values were determined using UV-spectra from 200 nm to 400 nm and the peak values of the chromatographic signals.
# Botrytis cinerea = assay: Example B: in vivo preventive test on Botrytis cinerea (grey mould); conditions: gherkin plants, preventive spray, 500 ppm of active ingredient, evaluated 4 to 5 days after inoculation
# Experimental: Example B: In Vivo Preventive Test on Botrytis cinerea (Grey Mould)
# as §1
# The young plants of gherkin are treated by spraying the active ingredient prepared as described above. Control plants are treated only with an aqueous solution of acetone/Dimethyl sulfoxide/Tween®.
# After 24 hours, the plants are contaminated by spraying the leaves with an aqueous suspension of Botrytis cinerea spores. The contaminated gherkin plants are incubated for 4 to 5 days at 17° C. and at 90% relative humidity.
# The test is evaluated 4 to 5 days after the inoculation. 0% means an efficacy which corresponds to that of the control plants while an efficacy of 100% means that no disease is observed.
# Plasmopara viticola = assay: Example J: Plasmopara test (grapevines)/preventive; assay type: in vivo; conditions: grapevine plants, preventive spray, 10 ppm of active ingredient, evaluated 6 days after inoculation
# Experimental: Example J: Plasmopara Test (Grapevines)/Preventive
# To produce a suitable preparation of active compound, 1 part by weight of active compound is mixed with the stated amounts of solvent and emulsifier, and the concentrate is diluted with water to the desired concentration.
# To test for preventive activity, young plants are sprayed with the preparation of active compound at the stated rate of application. After the spray coating has dried on, the plants are inoculated with an aqueous spore suspension of Plasmopara viticola and then remain for 1 day in an incubation cabinet at approximately 20° C. and a relative atmospheric humidity of 100%. The plant is subsequently placed for 4 days in a greenhouse at approximately 21° C. and a relative atmospheric humidity of approximately 90%. The plants are then misted and placed for 1 day in an incubation cabinet.
# The test is evaluated 6 days after the inoculation. 0% means an efficacy which corresponds to that of the untreated control, while an efficacy of 100% means that no disease is observed.
# [2] = for chromatographic logP: pH 2.7; for LogP: Table 1, formula (I), method [a]: HPLC/LC-MS at pH 2.7, 0.1% formic acid in water / acetonitrile gradient
# Experimental: as §4, §5, §6
# Puccinia recondita = assay: Example D: in vivo preventive test on Puccinia recondita (brown rust on wheat); conditions: wheat plants, preventive spray, 500 ppm of active ingredient, evaluated 11 days after inoculation
# Experimental: Example D: In Vivo Preventive Test on Puccinia recondita (Brown Rust on Wheat)
# as §1, §2
# After 24 hours, the plants are contaminated by spraying the leaves with an aqueous suspension of Puccinia recondita spores. The contaminated wheat plants are incubated for 24 hours at 20° C. and at 100% relative humidity and then for 10 days at 20° C. and at 70-80% relative humidity.
# (§3) The test is evaluated 11 days after the inoculation. 0% means an efficacy which corresponds to that of the control plants while an efficacy of 100% means that no disease is observed.
# Uromyces appendiculatus = assay: Example H: in vivo preventive test on Uromyces appendiculatus (bean rust); conditions: bean plants, preventive spray, 500 ppm of active ingredient, evaluated 11 days after inoculation
# Experimental: Example H: In Vivo Preventive Test on Uromyces appendiculatus (Bean Rust)
# as §1
# The young plants of bean are treated by spraying the active ingredient prepared as described above. Control plants are treated only with an aqueous solution of acetone/Dimethyl sulfoxide/Tween®.
# After 24 hours, the plants are contaminated by spraying the leaves with an aqueous suspension of Uromyces appendiculatus spores. The contaminated bean plants are incubated for 24 hours at 20° C. and at 100% relative humidity and then for 10 days at 20° C. and at 70-80% relative humidity.
# as §3
# Alternaria brassicae = assay: Example A: in vivo preventive test on Alternaria brassicae (leaf spot on radish); conditions: radish plants, preventive spray, 500 ppm of active ingredient, evaluated 6 days after inoculation
# Experimental: Example A: In Vivo Preventive Test on Alternaria brassicae (Leaf Spot on Radish)
# as §1
# The young plants of radish are treated by spraying the active ingredient prepared as described above. Control plants are treated only with an aqueous solution of acetone/Dimethyl sulfoxide/Tween®.
# After 24 hours, the plants are contaminated by spraying the leaves with an aqueous suspension of Alternaria brassicae spores. The contaminated radish plants are incubated for 6 days at 20° C. and at 100% relative humidity.
# The test is evaluated 6 days after the inoculation. 0% means an efficacy which corresponds to that of the control plants while an efficacy of 100% means that no disease is observed.
# Pyricularia oryzae = assay type: in vivo; conditions: rice plants, preventive spray, 500 ppm of active ingredient, evaluated 6 days after inoculation
Structure (SMILES),% efficacy (Phytophthora infestans),LogP [1],chromatographic logP [2],further results
Cn1c(/C(=N\OCc2nc(C(=O)Nc3ccccc3)cs2)c2ccccc2)noc1=O [Example 16],80%,3.29^[a],–,% efficacy (Pyrenophora teres): 71%; % efficacy (Septoria tritici): 79%
Cn1c(/C(=N\OCc2nc(C(=O)NCCc3ccccc3)cs2)c2ccccc2)noc1=O [Example 15],100%,3.27^[a],–,% efficacy (Botrytis cinerea): 73%; Eff. % (Plasmopara viticola): 75%
"Cn1c(C(=NOCc2nc(Br)cs2)c2ccccc2)noc1=O [Example 3, 3-[{[(4-bromo-1,3-thiazol-2-yl)methoxy]imino}(phenyl)methyl]-4-methyl-1,2,4-oxadiazol-5(4H)-one]",–,–,3.25,–
Cn1c(/C(=N\OCc2nc(C#CCCCc3ccccc3)cs2)c2ccccc2)noc1=O [Example 20],90%,4.68^[a],–,% efficacy (Puccinia recondita): 78%; % efficacy (Uromyces appendiculatus): 81%
"Cn1oc(=O)nc1/C(=N\OCc1nc(Br)cs1)c1ccccc1 [Example 14, 3-[(Z)-{[(4-bromo-1,3-thiazol-2-yl)methoxy]imino}(phenyl)methyl]-2-methyl-1,2,4-oxadiazol-5(2H)-one]",74%,–,2.6,–
"CN(O)C(=N)/C(=N\OCc1nc(Br)cs1)c1ccccc1 [Example VI-2, (2Z)-2-{[(4-bromo-1,3-thiazol-2yl)methoxy]imino}-N-hydroxy-N-methyl-2-phenylethanimidamide]",–,–,1.49,–
CC(OCC(=O)Nc1csc(CO/N=C(/c2ccccc2)c2noc(=O)n2C)n1)c1ccccc1 (stereo not shown) [Example 38],100%,4.32^[a],–,Eff. % (Plasmopara viticola): 96%
Cn1c(/C(=N\OCc2nc(C#CC3CC3)cs2)c2ccccc2)noc1=O [Example 10],100%,3.56^[a],–,% efficacy (Alternaria brassicae): 97%
"N#CC(=NOCc1nc(Br)cs1)c1ccccc1 [Example IV-3, {[(4-bromo-1,3-thiazol-2-yl)methoxy]imino}(phenyl)acetonitrile]",–,–,3.61,–
CC(Oc1ccccc1)C(=O)Nc1csc(CO/N=C(/c2ccccc2)c2noc(=O)n2C)n1 (stereo not shown) [Example 40],100%,3.55^[a],–,Eff. % (Plasmopara viticola): 99%
CCCC#Cc1csc(CO/N=C(/c2ccccc2)c2noc(=O)n2C)n1 [Example 22],100%,3.87^[a],–,Eff. % (Plasmopara viticola): 85%
"Cn1oc(=O)nc1/C(=N\OCn1ccc(N)n1)c1ccccc1 [Example 8, 3-[(Z)-{[(3-amino-1H-pyrazol-1-yl)methoxy]imino}(phenyl)methyl]-2-methyl-1,2,4-oxadiazol-5(2H)-one]",–,–,1.29,–
"N#C/C(=N\OCn1ccc([N+](=O)[O-])n1)c1ccccc1 [Example IV-1, (2Z)-{[(3-nitro-1H-pyrazol-1-yl)methoxy]imino}(phenyl)acetonitrile]",–,–,2.9,–
Cn1c(/C(=N\OCc2nc(NC(=O)C3CCc4ccccc4O3)cs2)c2ccccc2)noc1=O (stereo not shown) [Example 27],92%,3.77^[a],–,Eff. % (Plasmopara viticola): 99%
"Cn1oc(=O)nc1/C(=N\OCn1ccc([N+](=O)[O-])n1)c1ccccc1 [Example 2, 2-methyl-3-[(Z)-{[(3-nitro-1H-pyrazol-1-yl)methoxy]imino}(phenyl)methyl]-1,2,4-oxadiazol-5(2H)-one]",–,–,2.1,–
"CN(O)C(=N)/C(=N\OCn1ccc([N+](=O)[O-])n1)c1ccccc1 [Example VI-1, (2Z)—N-hydroxy-N-methyl-2-{[(3-nitro-1H-pyrazol-1-yl)methoxy]imino}-2-phenylethanimidamide]",–,–,1.15,–
"Cn1oc(=O)nc1/C(=N\OCc1nc(C#CC2CC2)cs1)c1ccccc1 [Example 4, 3-[(Z)-({[4-(cyclopropylethynyl)-1,3-thiazol-2-yl]methoxy}imino)(phenyl)methyl]-2-methyl-1,2,4-oxadiazol-5(2H)-one]",100%,–,3.04,–
Cn1c(/C(=N\OCc2nc(NC(=O)Cc3ccccc3)cs2)c2ccccc2)noc1=O [Example 19],98%,–,–,LogP [2]: 3.21^[a]
CCCCCCNC(=O)c1csc(CO/N=C(/c2ccccc2)c2noc(=O)n2C)n1 [Example 18],99%,3.76^[a],–,% efficacy (Pyrenophora teres): 71%; % efficacy (Uromyces appendiculatus): 72%
Cn1c(/C(=N\OCc2nc(NC(=O)OC(C)(C)C)cs2)c2ccccc2)noc1=O [Example 6],100%,3.64^[a],–,% efficacy (Pyrenophora teres): 80%; Eff. % (Plasmopara viticola): 99%
CC(C)C#Cc1csc(CO/N=C(/c2ccccc2)c2noc(=O)n2C)n1 [Example 23],99%,–,–,LogP [2]: 3.86^[a]
Cc1ccc(C(=O)Nc2csc(CO/N=C(/c3ccccc3)c3noc(=O)n3C)n2)cc1 [Example 17],100%,3.34^[a],–,Eff. % (Plasmopara viticola): 84%
Cn1c(/C(=N\OCc2nc(C(=O)NC(C)(C)C)cs2)c2ccccc2)noc1=O [Example 5],100%,3.22^[a],–,% efficacy (Septoria tritici): 86%
CCCCCC#Cc1csc(CO/N=C(/c2ccccc2)c2noc(=O)n2C)n1 [Example 37],100%,4.72^[a],–,–
Cn1c(/C(=N\OCc2nc(/C=C/C3CC3)cs2)c2ccccc2)noc1=O [Example 34],100%,3.90^[a],–,% efficacy (Septoria tritici): 86%
Cn1c(/C(=N\OCc2nc(/C=C/C3CCCCC3)cs2)c2ccccc2)noc1=O [Example 29],83%,5.39^[a],–,% efficacy (Septoria tritici): 79%
Cn1c(/C(=N\OCc2nc(C#Cc3ccc(F)cc3)cs2)c2ccccc2)noc1=O [Example 13],95%,4.09^[a],–,% efficacy (Pyricularia oryzae): 79%
